The term melting point denotes the temperature of the solid-liquid transition. In general, IC50 refers to the concentration that inhibits the measured activity by half. A high value points to weaker potency in that assay. In general, EC50 refers to the concentration needed to bring the measured effect to its halfway point.

This is an account of results in patent publication US7067518B2, “Pyridinyl-methyl-ethyl cyclohexanecarboxamides as serotonergic agents” (Wyeth, priority 2002, dated 2006).

Structures are written as SMILES. Counter-ions that a name gives are not always drawn.

Series [1] addresses T1, human 5-HT1A receptor (Homo sapiens, UniProt P08908).
T1 construct: expressed in transfected cells; host or cells: CHO cells (stably transfected)
T1 sequence (P08908 1-422): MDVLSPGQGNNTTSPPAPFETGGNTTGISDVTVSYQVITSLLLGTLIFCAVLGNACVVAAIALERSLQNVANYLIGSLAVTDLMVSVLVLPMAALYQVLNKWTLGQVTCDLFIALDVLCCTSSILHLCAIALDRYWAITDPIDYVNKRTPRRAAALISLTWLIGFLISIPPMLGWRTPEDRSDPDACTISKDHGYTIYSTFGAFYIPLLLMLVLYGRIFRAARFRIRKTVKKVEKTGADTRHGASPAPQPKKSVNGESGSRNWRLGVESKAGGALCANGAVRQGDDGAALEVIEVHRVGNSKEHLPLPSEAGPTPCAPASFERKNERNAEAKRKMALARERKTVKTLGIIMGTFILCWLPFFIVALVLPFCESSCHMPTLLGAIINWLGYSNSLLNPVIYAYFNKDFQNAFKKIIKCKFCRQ
Kind of series: 5-HT1A affinity: displacement of [3H] 8-OHDPAT. As to conditions: CHO cells stably transfected with the human 5-HT1A receptor. In kind it is binding. An excerpt:
Affinity for the serotonin 5-HT1A receptor was established by assaying the test compound's ability to displace [^3H] 8-OHDPAT from its binding site on the receptor complex in CHO cells stably transfected with the human 5-HT1A receptor following the procedure described by J. Dunlop, Y. Zhang, D. Smith and L. Schechter (Eur. J. Pharmacol., submitted; variation of a procedure described by J. Zgombick et al., Naunyn-Schmiedeberg's Arch. Pharmacol., 354, 226–236 (1996)).
In general terms: Displacement assays read how much labelled ligand stays bound in the presence of the test substance.

For series [2], the target named is T1, human 5-HT1A receptor. As to the kind of experiment: Agonist activity: reversal of forskolin stimulation of cAMP. As to conditions: reversal of forskolin-stimulated cAMP; CHO cells stably transfected with the human 5-HT1A receptor; RIA. In kind it is cell-based. The protocol:
EC50 values are determined for the active test compounds. Stably transfected CHO cells were grown in DMEM containing 10% heat inactivated FBS and non-essential amino acids. The cells are plated at a density of […] per well in a 24 well plate and incubated for 2 days in a CO2 incubator. On the second day, the media is replaced with 0.5 mL treatment buffer (DMEM+25 mM HEPES, 5 mM theophylline, 10 mM pargyline) and incubated for 10 minutes at 37° C. Wells are treated with forskolin ([…]) followed immediately by the test compound ([…] for initial screen) and incubated for an additional 10 minutes at 37° C. The reaction is terminated by removal of the media and addition of 0.5 mL ice cold assay buffer (supplied in the RIA kit). Plates are stored at −20° C. prior to assessment of cAMP formation by RIA.

For series [3], the target named is T1, human 5-HT1A receptor. As to the kind of experiment: Antagonist activity: forskolin-stimulated cAMP turnover. In kind it is cell-based. As to conditions: CHO cells stably transfected with the human 5-HT1A receptor, compounds with no agonist activity (Emax=0%). An excerpt:
Compounds shown to have no agonist activity (Emax=0%) are further analyzed to determine antagonist activity, as measured by the test compound's ability to inhibit forskolin-stimulated cAMP turnover in CHO cells stably transfected with the human 5-HT1A receptor using a procedure described by J. Dunlop, Y. Zhang, D. Smith and L. Schechter [Eur. J. Pharmacol., submitted; variation of a procedure described by J. Zgombick et al., Naunyn-Schmiedeberg's Arch. Pharmacol., 354, 226–236 (1996)].

Consider `COc1ccccc1N1CCN(C[C@@H](Cc2cccnc2)NC(=O)C2(C)CCCCC2)CC1` (as salt: fumarate) [Example 5, (R)-1-Methyl-cyclohexanecarboxylic acid {2-[4-(2-methoxy-phenyl)-piperazin-1-yl]-1-pyridin-3-ylmethyl-ethyl}-amide], for which the melting point is 150 to 152 °C.
The molecule `COc1ccccc1N1CCN(C[C@@H](Cc2ccncc2)NC(=O)C2(C)CCCCC2)CC1` (as salt: fumarate) [Example 10, (R)-1-Methyl-cyclohexanecarboxylic acid {2-[4-(2-methoxy-phenyl)-piperazin-1-yl]-1-pyridin-4-ylmethyl-ethyl}-amide] had a melting point of 145 °C.
For the molecule `COc1ccccc1N1CCN(C[C@@H](Cc2ccccn2)NC(=O)C2CCCCC2)CC1` (as salt: fumarate) [Example 14, (R)-Cyclohexanecarboxylic acid {2-[4-(2-methoxy-phenyl)-piperazin-1-yl]-1-pyridin-2-ylmethyl-ethyl}-amide], the melting point was in the range of 136 to 141 °C.
In turn, `COc1ccccc1N1CCN(C[C@@H](Cc2ccccn2)NC(=O)C2(C)CCCCC2)CC1` (as salt: fumarate) [Example 15, (R)-1-Methyl-cyclohexanecarboxylic acid {2-[4-(2-methoxy-phenyl)-piperazin-1-yl]-1-pyridin-2-ylmethyl-ethyl}-amide] came in with a melting point of 135 to 139 °C.
Same read-out and setting: to `COc1ccccc1N1CCN(C[C@@H](Cc2ccccn2)N(C)C(=O)C2(C)CCCCC2)CC1` (as salt: fumarate) [Example 18, 1-Methyl-cyclohexanecarboxylic acid {(1R)-2-[4-(2-methoxy-phenyl)-piperazin-1-yl]-1-pyridin-2-ylmethyl-ethyl}-methyl-amide] belongs 145 to 146 °C.
Still for that read-out and setting: for `CC1(C(=O)N[C@H](Cc2cccnc2)CN2CCN(c3cccc4c3OCCO4)CC2)CCCCC1` (as salt: hydrochloride) [Example 22, 1-Methyl-cyclohexanecarboxylic acid {(1R)-2-[4-(2,3-dihydro-benzo[1,4]dioxin-5-yl)-piperazin-1-yl]-1-pyridin-3-ylmethyl-ethyl}-amide] the value was 188 to 190 °C.
Molecule `CC1(C(=O)N[C@H](Cc2ccncc2)CN2CCN(c3cccc4c3OCCO4)CC2)CCCCC1` (as salt: hydrochloride) [Example 23, 1-Methyl-cyclohexanecarboxylic acid {(1R)-2-[4-(2,3-dihydro-benzo[1,4]dioxin-5-yl)-piperazin-1-yl]-1-pyridin-4-ylmethyl-ethyl}-amide] had a melting point of 188 to 190 °C.
The same measure, in the same setting: for `CN(C(=O)C1CCCCC1)[C@H](Cc1cccnc1)CN1CCN(c2cccc3c2OCCO3)CC1` (as salt: hydrochloride) [Example 24, Cyclohexanecarboxylic acid {(1R)-2-[4-(2,3-dihydro-benzo[1,4]dioxin-5-yl)-piperazin-1-yl]-1-pyridin-3-ylmethyl-ethyl}-methyl-amide] the value was 167 to 170 °C; for `CN(C(=O)C1CCCCC1)[C@H](Cc1ccncc1)CN1CCN(c2cccc3c2OCCO3)CC1` (as salt: hydrochloride) [Example 25, Cyclohexanecarboxylic acid {(1R)-2-[4-(2,3-dihydro-benzo[1,4]dioxin-5-yl)-piperazin-1-yl]-1-pyridin-4-ylmethyl-ethyl}-methyl-amide], 167 to 170 °C; for `COc1ccccc1N1CCN(C[C@@H](Cc2cccnc2)NC(=O)C2CCCCC2)CC1` (as salt: maleate) [Example 4, (R)-Cyclohexanecarboxylic acid {2-[4-(2-methoxy-phenyl)-piperazin-1-yl]-1-pyridin-3-ylmethyl-ethyl}-amide], 112 to 115 °C.
`COc1ccccc1N1CCN(C[C@@H](Cc2ccncc2)NC(=O)C2CCCCC2)CC1` (as salt: maleate) [Example 9, (R)-Cyclohexanecarboxylic acid {2-[4-(2-methoxy-phenyl)-piperazin-1-yl]-1-pyridin-4-ylmethyl-ethyl}-amide] displayed a melting point of 145 to 147 °C.
For `COc1ccccc1N1CCN(C[C@@H](Cc2cccnc2)NC(=O)C2CCCCC2)CC1` [Example 4, (R)-Cyclohexanecarboxylic acid {2-[4-(2-methoxy-phenyl)-piperazin-1-yl]-1-pyridin-3-ylmethyl-ethyl}-amide], the IC50 in series [1] is 0.48 nM. Further, the EC50 in series [2] was 20.5 nM.
Take `COc1ccccc1N1CCN(C[C@@H](Cc2cccnc2)NC(=O)C2(C)CCCCC2)CC1` [Example 5, (R)-1-Methyl-cyclohexanecarboxylic acid {2-[4-(2-methoxy-phenyl)-piperazin-1-yl]-1-pyridin-3-ylmethyl-ethyl}-amide]: the IC50 is 0.88 nM in series [1] and 13.2 nM in series [3].
The molecule `COc1ccccc1N1CCN(C[C@@H](Cc2ccncc2)NC(=O)C2CCCCC2)CC1` [Example 9, (R)-Cyclohexanecarboxylic acid {2-[4-(2-methoxy-phenyl)-piperazin-1-yl]-1-pyridin-4-ylmethyl-ethyl}-amide] came in with an IC50 in series [1] of 0.56 nM. The EC50 in series [2] turned out to be 141 nM.
`COc1ccccc1N1CCN(C[C@@H](Cc2ccncc2)NC(=O)C2(C)CCCCC2)CC1` [Example 10, (R)-1-Methyl-cyclohexanecarboxylic acid {2-[4-(2-methoxy-phenyl)-piperazin-1-yl]-1-pyridin-4-ylmethyl-ethyl}-amide]: the figures for the IC50 in series [1] and in series [3] were 0.72 nM and 11.3 nM, respectively.
`COc1ccccc1N1CCN(C[C@@H](Cc2ccccn2)NC(=O)C2CCCCC2)CC1` [Example 14, (R)-Cyclohexanecarboxylic acid {2-[4-(2-methoxy-phenyl)-piperazin-1-yl]-1-pyridin-2-ylmethyl-ethyl}-amide] gave a half-inhibitory concentration (IC50) in series [1] of 1.26 nM. In addition, in series [2], the EC50 stood at 53 nM.
As for `COc1ccccc1N1CCN(C[C@@H](Cc2ccccn2)NC(=O)C2(C)CCCCC2)CC1` [Example 15, (R)-1-Methyl-cyclohexanecarboxylic acid {2-[4-(2-methoxy-phenyl)-piperazin-1-yl]-1-pyridin-2-ylmethyl-ethyl}-amide], the IC50 in series [1] came out at 0.74 nM; in series [3] it was 4.5 nM.
For `COc1ccccc1N1CCN(C[C@@H](Cc2ccccn2)N(C)C(=O)C2(C)CCCCC2)CC1` [Example 18, 1-Methyl-cyclohexanecarboxylic acid {(1R)-2-[4-(2-methoxy-phenyl)-piperazin-1-yl]-1-pyridin-2-ylmethyl-ethyl}-methyl-amide], the figures for the IC50 in series [1] and in series [3] were 3 nM and 132 nM, respectively.
For the molecule `CC1(C(=O)N[C@H](Cc2cccnc2)CN2CCN(c3cccc4c3OCCO4)CC2)CCCCC1` [Example 22, 1-Methyl-cyclohexanecarboxylic acid {(1R)-2-[4-(2,3-dihydro-benzo[1,4]dioxin-5-yl)-piperazin-1-yl]-1-pyridin-3-ylmethyl-ethyl}-amide], in series [1], the half-maximal inhibitory concentration (IC50) came to 2.58 nM. Moreover, the EC50 in series [2] worked out at 10.2 nM.
`CN(C(=O)C1CCCCC1)[C@H](Cc1cccnc1)CN1CCN(c2cccc3c2OCCO3)CC1` [Example 24, Cyclohexanecarboxylic acid {(1R)-2-[4-(2,3-dihydro-benzo[1,4]dioxin-5-yl)-piperazin-1-yl]-1-pyridin-3-ylmethyl-ethyl}-methyl-amide]: the figures for the IC50 in series [1] and in series [3] were 2.48 nM and 77 nM, respectively.
As to `CN(C(=O)C1CCCCC1)[C@H](Cc1ccncc1)CN1CCN(c2cccc3c2OCCO3)CC1` [Example 25, Cyclohexanecarboxylic acid {(1R)-2-[4-(2,3-dihydro-benzo[1,4]dioxin-5-yl)-piperazin-1-yl]-1-pyridin-4-ylmethyl-ethyl}-methyl-amide], the IC50 worked out at 3.81 nM in series [1] and 115 nM in series [3].
